Experimental findings from patent US11384078B2, “5,6-fused-bicyclic compounds and compositions for the treatment of parasitic diseases” (NOVARTIS AG, priority 2017, dated 2022) are described below.

What all share (assay type): cell-based
Experiment [1] relates to Trypanosoma cruzi amastigotes cultured in 3T3 fibroblast cells. As to the kind of experiment: Assay for growth inhibition of kinetoplastid parasite Trypanosoma cruzi (beta-galactosidase Tulahuen strain, CPRG readout). As to conditions: Trypanosoma cruzi, Fibroblast, T. cruzi amastigotes in 3T3 fibroblast cells; read-out: Buckner infectious T. cruzi EC50. The gist of the method:
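3T3 fibroblasts (1,000 cells/well) plated overnight, treated with compound in DMSO, then infected with 10,000 Lac-Z-expressing Tulahuen trypomastigotes. After 6 days, 0.6 mM CPRG with 0.6% NP-40 added for 2 h at room temperature; absorbance gives relative intracellular amastigote numbers. Benznidazole and nifurtimox serve as positive controls.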

The subject of experiment [2] is Leishmania donovani axenic amastigote. Description: In vitro assay for growth inhibition of Leishmania donovani axenic amastigote (Cell TiterGlo luminescence). As to conditions: Leishmania donovani, L. donovani axenic amastigotes in vitro; read-out: L. donovani amastigotes EC50. The gist of the method:
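Compound-treated wells received 9600 axenic amastigotes in RPMI 1640-based medium at pH 5.5 (37 °C, 5% CO2). Growth measured as ATP luminescence (CellTiter-Glo) after 2-day incubation; DMSO and reference compounds served as controls.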
(In ATP-based viability assays light output follows the ATP content of the culture.)

Experiment [3] relates to L. donovani HU3 strain in mouse peritoneal macrophages. Description: Assay for inhibition of parasitemia of Leishmania donovani in mouse macrophages (SYBR Green nuclei count, high-content imaging). As to conditions: Leishmania donovani, Peritoneal macrophage, L. donovani in mouse peritoneal macrophages; read-out: L. donovani in Mouse Macrophages EC50. Put shortly:
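Parasite numbers were counted from SYBR Green-stained nuclei imaged by high-content microscopy after paraformaldehyde fixation and Triton permeabilization. Before this, compound was applied for 5 days at 37° C to BALB/c peritoneal macrophages (2×10^4/well) that had been exposed 24 h to 4×10^5 L. donovani HU3 amastigotes harvested from infected mouse spleens.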

Experiment [4] relates to Trypanosoma brucei brucei (Lister 427) strain. Description: Assay for growth inhibition against Trypanosoma brucei brucei (Cell TiterGlo ATP luminescence). The following applies: T. brucei brucei (Lister 427), read-out: T. Brucei (HAT) EC50. Put shortly:
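Growth read-out is cellular ATP by CellTiter-Glo luminescence, measured 30 min after reagent addition, following 2-day incubation at 37 °C in CO2. Parasites (10,000/mL, HMI-9 plus 10% FBS and 10% serum plus) faced 10 threefold dilutions in duplicate; IC50 taken as 50% growth inhibition versus untreated.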

Read-outs that look alike come from different tables or passages of the source. Where only a bound is given, the exact number is not on record here.

As for `O=C(Nc1ccc(F)c(-n2cc3cc(-c4ccccn4)cnc3n2)c1)C1CC12CC2` (stereo not shown) [Compound 346, N-{4-fluoro-3-[5-(pyridin-2-yl)-2H-pyrazolo[3,4-b]pyridin-2-yl]phenyl}spiro[2.2]pentane-1-carboxamide], the EC50 (commonly the concentration needed to bring the measured effect to its halfway point) in experiment [1] is 34 nM; in experiment [2] it was 239 nM; in experiment [3], 155 nM; in experiment [4] (Trypanosoma brucei), 41 nM.
On the same counts, the results for `CC(C)(C)c1cnc2nn(-c3cc(NC(=O)N4CC(F)C4)ccc3F)cc2c1` [Compound 22, N-(3-{5-tert-butyl-2H-pyrazolo[3,4-b]pyridin-2-yl}-4-fluorophenyl)-3-fluoroazetidine-1-carboxamide] are 7.2 nM, 28 nM, 21000 nM and less than 23 nM.
On the same counts, the results for `Cc1cccnc1-c1cnc2nn(-c3cc(NC(=O)c4ccco4)ccc3F)cc2c1` [Compound 2, N-(4-fluoro-3-(5-(3-methylpyridin-2-yl)-2H-pyrazolo[3,4-b]pyridin-2-yl)phenyl)furan-2-carboxamide] are 1 nM, 3 nM, 4.4 nM and less than 23 nM.
On to `CC(C)c1cnc2nn(-c3cc(NC(=O)CC4CCC4)ccc3F)cc2c1` [Compound 216, 2-cyclobutyl-N-{4-fluoro-3-[5-(propan-2-yl)-2H-pyrazolo[3,4-b]pyridin-2-yl]phenyl}acetamide], for which the concentration giving a half-maximal response (EC50) worked out at 435 nM in experiment [1], 3700 nM in experiment [2], 4670 nM in experiment [3] and 620 nM in experiment [4] (Trypanosoma brucei).
On the same counts, the results for `CC(C)c1cnc2nn(-c3cc(NC(=O)c4ncc(F)cc4F)ccc3F)cc2c1` [Compound 70, 3,5-difluoro-N-{4-fluoro-3-[5-(propan-2-yl)-2H-pyrazolo[3,4-b]pyridin-2-yl]phenyl}pyridine-2-carboxamide] are 22 nM, 140 nM, 100 nM and 38 nM.
On to `O=C(Nc1ccc(F)c(-n2cc3cc(-c4ccccn4)cnc3n2)c1)c1ccco1` [Compound 64, N-{4-fluoro-3-[5-(pyridin-2-yl)-2H-pyrazolo[3,4-b]pyridin-2-yl]phenyl}furan-2-carboxamide], for which the EC50 in experiment [1] was 1 nM; in experiment [2], 2.2 nM; in experiment [3], 3.9 nM; in experiment [4] (Trypanosoma brucei), less than 23 nM.
On the same counts, the results for `O=C(Nc1ccc(F)c(-n2cc3cc(C4CCOCC4)cnc3n2)c1)N1CC[C@@H](F)C1` [Compound 150, (R)-3-fluoro-N-(4-fluoro-3-(5-(tetrahydro-2H-pyran-4-yl)-2H-pyrazolo[3,4-b]pyridin-2-yl)phenyl)pyrrolidine-1-carboxamide] are 21 nM, 14 nM, 25 nM and less than 23 nM.
For the compound `O=C(Nc1ccc(F)c(-n2cc3cc(-c4ncccc4F)cnc3n2)c1)N1CC(F)(F)C1` [Compound 309, 3,3-difluoro-N-{4-fluoro-3-[5-(3-fluoropyridin-2-yl)-2H-pyrazolo[3,4-b]pyridin-2-yl]phenyl}azetidine-1-carboxamide], the EC50 in experiment [1] was determined as 1 nM; in experiment [2], 1 nM; in experiment [3], 2 nM; in experiment [4] (Trypanosoma brucei), 5 nM.
As for `O=C(Nc1ccc(F)c(-n2cc3cc(N4CC5CCC4CO5)cnc3n2)c1)N1CC(F)C1` (stereo not shown) [Compound 197, 3-fluoro-N-[4-fluoro-3-(5-{2-oxa-5-azabicyclo[2.2.2]octan-5-yl}-2H-pyrazolo[3,4-b]pyridin-2-yl)phenyl}azetidine-1-carboxamide], the concentration for a half-maximal effect (EC50) in experiment [1] turned out to be 37 nM; in experiment [2] it was 199 nM; in experiment [3], 13 nM; in experiment [4] (Trypanosoma brucei) it was 5 nM.
The matching figures for `CC(C)c1cnc2nn(-c3cc(NC(=O)N4CC[C@@H](F)C4)ccc3F)cc2c1` [Compound 195, (3R)-3-fluoro-N-{4-fluoro-3-[5-(propan-2-yl)-2H-pyrazolo[3,4-b]pyridin-2-yl]phenyl}pyrrolidine-1-carboxamide]: 4 nM, 10 nM, 6.4 nM and less than 23 nM.
On the same counts, the results for `O=C(Nc1cccc(-n2cc3cc(N4CC(F)(F)C4)cnc3n2)c1)N1CCC1` [Compound 343, N-{3-[5-(3,3-difluoroazetidin-1-yl)-2H-pyrazolo[3,4-b]pyridin-2-yl]phenyl}azetidine-1-carboxamide] are 14 nM, 10 nM, 32 nM and 9 nM.
On the same counts, the results for `O=C(Nc1ccc(F)c(-n2cc3cc(N4CC(F)C4)cnc3n2)c1)N1CC(F)(F)C1` [Compound 303, 3,3-difluoro-N-{4-fluoro-3-[5-(3-fluoroazetidin-1-yl)-2H-pyrazolo[3,4-b]pyridin-2-yl]phenyl}azetidine-1-carboxamide] are 10 nM, 490 nM, 15 nM and 5 nM.
As for `Cc1nc(C)c(C(=O)Nc2ccc(F)c(-n3cc4cc(Br)cnc4n3)c2)o1` [Compound 128, N-(3-(5-bromo-2H-pyrazolo[3,4-b]pyridin-2-yl)-4-fluorophenyl)-2,4-dimethyloxazole-5-carboxamide], the 50% effective concentration (EC50) in experiment [1] was determined as 140 nM; in experiment [2] it was 380 nM; in experiment [3], 190 nM; in experiment [4] (Trypanosoma brucei), 180 nM.
On the same counts, the results for `O=C(Nc1ccc(F)c(-n2cc3cc(N4CCNCC4)cnc3n2)c1)N1CC(F)C1` [Compound 270, 3-fluoro-N-{4-fluoro-3-[5-(piperazin-1-yl)-2H-pyrazolo[3,4-b]pyridin-2-yl]phenyl}azetidine-1-carboxamide] are 1700 nM, 233 nM, 2170 nM and 79 nM.
The matching figures for `CC(C)c1cnc2nn(-c3cc(NC(=O)c4ccccn4)ccc3F)cc2c1` [Compound 82, N-{4-fluoro-3-[5-(propan-2-yl)-2H-pyrazolo[3,4-b]pyridin-2-yl]phenyl}pyridine-2-carboxamide]: 59 nM, 470 nM, 310 nM and 54 nM.
The matching figures for `O=C(Nc1ccc(F)c(-n2cc3cc(N4CC(C(F)(F)F)C4)cnc3n2)c1)N1CC[C@@H](F)C1` [Compound 275]: 1 nM, 3 nM, 3 nM and 1 nM.
Consider `O=C(Nc1ccc(Cl)c(-n2cc3cc(N4CC5(CC5)C4)cnc3n2)c1)N1CCC1` [Compound 286, N-[3-(5-{5-azaspiro[2.3]hexan-5-yl}-2H-pyrazolo[3,4-b]pyridin-2-yl)-4-chlorophenyl]azetidine-1-carboxamide], for which the EC50 was 14 nM in experiment [1], 25 nM in experiment [2], 47 nM in experiment [3] and 30 nM in experiment [4] (Trypanosoma brucei).
As for `O=C(Nc1ccc(F)c(-n2cc3cc(-c4ncccc4Cl)cnc3n2)c1)N1CC[C@@H](F)C1` [Compound 316, (3R)-N-{3-[5-(3-chloropyridin-2-yl)-2H-pyrazolo[3,4-b]pyridin-2-yl]-4-fluorophenyl}-3-fluoropyrrolidine-1-carboxamide], the EC50 in experiment [1] was 1 nM; in experiment [2], 2 nM; in experiment [3] it was 2 nM; in experiment [4] (Trypanosoma brucei), 5 nM.
As for `CCC(C)c1cnc2nn(-c3cc(NC(=O)N4CCC4)ccc3F)cc2c1` (stereo not shown) [Compound 96, N-{3-[5-(butan-2-yl)-2H-pyrazolo[3,4-b]pyridin-2-yl]-4-fluorophenyl}azetidine-1-carboxamide], the EC50 in experiment [1] was 18 nM; in experiment [2] it was 23 nM; in experiment [3], 21 nM; in experiment [4] (Trypanosoma brucei), less than 23 nM.
On the same counts, the results for `O=C(Nc1ccc(F)c(-n2cc3cc(N4C5COCC4C5)cnc3n2)c1)N1CC(F)C1` [Compound 263, 3-fluoro-N-[4-fluoro-3-(5-{3-oxa-6-azabicyclo[3.1.1]heptan-6-yl}-2H-pyrazolo[3,4-b]pyridin-2-yl)phenyl]azetidine-1-carboxamide] are 45 nM, 12 nM, 68 nM and 10 nM.
On the same counts, the results for `CC(C)CCc1cnc2nn(-c3cc(NC(=O)N4CCC4)ccc3F)cc2c1` [Compound 98, N-{4-fluoro-3-[5-(3-methylbutyl)-2H-pyrazolo[3,4-b]pyridin-2-yl]phenyl}azetidine-1-carboxamide] are 15 nM, 25 nM, 23 nM and less than 23 nM.
With `O=C(Nc1ccc(F)c(-n2cc3cc(N4CC(F)C4)cnc3n2)c1)N1CC(F)C1` [Compound 291, 3-fluoro-N-{4-fluoro-3-[5-(3-fluoroazetidin-1-yl)-2H-pyrazolo[3,4-b]pyridin-2-yl]phenyl}azetidine-1-carboxamide], the EC50 in experiment [1] was 5 nM; in experiment [2], 10 nM; in experiment [3], 5 nM; in experiment [4], 5 nM.
